These results are taken from patent publication US8003631B2, “Composition and method for the treatment of tauopathies” (Tautatis, Inc., priority 2004, dated 2011).

Data set [1] concerns PHF-type tau hyperphosphorylation. Put plainly: Titration of tau hyperphosphorylation inhibitors in okadaic acid-stimulated rat hippocampal brain slice model. The class given is cell-based. Particulars: okadaic acid provocation of PHF-markers. The text has this:
Authentic PHF-type phosphorylation events virtually indistinguishable by all known molecular markers from what is seen in PHF-tau from human Alzheimer's disease brains is rapidly provoked in such brain slices by application of the phosphatase inhibitor okadaic acid (OA) [Gong et al., Brain Res. Brain Res. Protoc., 6, 134-140 (2001); WO 01/57535; WO 00/01699].
In okadaic acid-treated brain slices, most of the above pathological markers are modeled. For the detection of active inhibitor compounds, freshly prepared metabolically-active isolated slices, kept under constant oxygenation in a physiological buffer (artificial cerebrospinal fluid or Krebs-Ringer solution), are preincubated with a range of concentration of the compounds of general formula 1. The slices are then extracted with buffers stopping both kinase as well as phosphatase activities, and soluble supernatants of such tissue homogenates are then separated by SDS-PAGE and subjected to Western-blotting. […] The intensity of the signals can then be normalized to the amount of total tau in the sample by probing a sister blot with a phosphorylation insensitive tau antibody, followed by forming the intensity ratio of the respective phosphoepitope over total tau immunoreactivity which represent an accurate quantitative measure of the degree of phosphorylation defining a particular epitope. […]

For data set [2] the following is noted: cited from earlier work.

As to `CN[C@@H]1C[C@H]2O[C@@](C)([C@@H]1OC)n1c3ccccc3c3c4c(c5c6ccccc6n2c5c31)C(=O)NC4` [staurosporine], the “activity in the brain slice hyperphosphorylation model” value in data set [1] was “inactive”.
On to `COC(=O)[C@@]1(O)C[C@H]2O[C@]1(C)n1c3ccccc3c3c4c(c5c6ccccc6n2c5c31)C(=O)NC4` [K252a], for which the brain/plasma ratio result in data set [2] (concentration in brain over concentration in plasma at a given time point) was “below 1”. Also, in data set [2] (rats, oral), the maximal oral bioavailability is 13%.
`CCSCc1ccc2c(c1)c1c3c(c4c5cc(CSCC)ccc5n5c4c1n2[C@H]1C[C@](O)(C(=O)OC)[C@]5(C)O1)CNC3=O` [CEP-1347]: in data set [1], the “activity in the brain slice hyperphosphorylation model” value is “inactive”.
